For data set [1] the following is noted: result in words.
For data set [2] the following is noted: colourless aqueous solution.

As for `O=S(=O)([O-])c1ccc(Nc2nc(Cl)nc(Cl)n2)c(-c2nc3ccccc3s2)c1.[Na+]` [Compound II, Sodium salt of 4-(4,6-dichloro-1,3,5-triazin-2-ylamino)-3-(benzo[d]thiazol-2-yl)benzenesulfonic acid], in data set [1], the solubility in water entry is recorded as “not soluble in water”.
On to `O=S(=O)([O-])c1cccc(Nc2nc(Cl)nc(Nc3ccc(S(=O)(=O)[O-])cc3-c3nc4ccccc4s3)n2)c1.[Na+].[Na+]` [Compound III, Disodium salt of 4-[4-Chloro-6-(3-sulfophenylamino)-1,3,5-triazin-2-ylamino]-3-(benzo[d]thiazol-2-yl)benzenesulfonic acid], for which, in data set [1], the solubility in water entry is “highly soluble in water”. In data set [2], the fluorescence wavelength maximum is on record as 550 nm.
Consider `O=C([O-])CN(CC(=O)[O-])c1nc(Nc2ccc(S(=O)(=O)[O-])cc2-c2nc3ccccc3s2)nc(N(CC(=O)[O-])CC(=O)[O-])n1.[K+].[K+].[K+].[K+].[K+]` [Compound IV, Pentapotassium salt of 4-{4,6-bis-[di(carboxymethyl)amino]-1,3,5-triazin-2-ylamino}-3-(benzo[d]thiazol-2-yl)benzenesulfonic acid], for which, in data set [1], the solubility in water result is on record as “highly soluble in water”. Also, the fluorescence wavelength maximum in data set [2] is recorded as 570 nm.
With `O=S(=O)([O-])c1cccc(Nc2nc(Nc3ccc(S(=O)(=O)[O-])cc3-c3nc4ccccc4s3)nc(N3CCOCC3)n2)c1.[Na+].[Na+]` [Compound IX, Disodium salt of 4-[4-(3-sulfophenylamino)-6-morpholino-1,3,5-triazin-2-ylamino]-3-(benzo[d]thiazol-2-yl)benzenesulfonic acid], in data set [1], the solubility in water entry is reported as “highly soluble in water”. In data set [2], this molecule came in with a fluorescence wavelength maximum of 565 nm.
For the molecule `O=S(=O)([O-])c1ccc(Nc2nc(Cl)nc(Nc3ccc(S(=O)(=O)[O-])cc3-c3nc4ccccc4s3)n2)c(-c2nc3ccccc3s2)c1.[Na+].[Na+]` [Compound V, Disodium salt of 4-{4-[2-(benzo[d]thiazol-2-yl)-4-sulfophenylamino]-6-chloro-1,3,5-triazin-2-ylamino}-3-(benzo[d]thiazol-2-yl)benzenesulfonic acid], in data set [1], the solubility in water result is on record as “poorly soluble in water”.
On to `O=S(=O)([O-])c1ccc(Nc2nc(Nc3ccc(S(=O)(=O)[O-])cc3-c3nc4ccccc4s3)nc(N3CCOCC3)n2)c(-c2nc3ccccc3s2)c1.[Na+].[Na+]` [Compound VI, Disodium salt of 4-{4-[2-(benzo[d]thiazol-2-yl)-4-sulfophenylamino]-6-morpholino-1,3,5-triazin-2-ylamino}-3-(benzo[d]thiazol-2-yl)benzenesulfonic acid], for which, in data set [1], the solubility in water entry is reported as “highly soluble in water”. Besides, in data set [2], the fluorescence wavelength maximum is 582 nm.
In the case of `O=C(Nc1ccc(S(=O)(=O)[O-])cc1-c1nc2ccccc2s1)c1ccccc1S(=O)(=O)[O-].[Na+].[Na+]` [Compound VII, Disodium salt of 4-(2-sulfobenzoylamino)-3-(benzoldlthiazol-2-yl)benzenesulfonic acid], the solubility in water entry in data set [1] is given as “highly soluble in water”. The same molecule had a fluorescence wavelength maximum in data set [2] of 547 nm.
In the same order, the values of `O=C([O-])CNc1nc(Cl)nc(Nc2ccc(S(=O)(=O)[O-])cc2-c2nc3ccccc3s2)n1.[Na+].[Na+]` [Compound VIII, Disodium salt of 4-(4-carboxymethylamino-6-chloro-1,3,5-triazin-2-ylamino)-3-(benzo[d]thiazol-2-yl)benzenesulfonic acid] are “highly soluble in water” and 548 nm.
With `O=C([O-])CNc1nc(NCC(=O)[O-])nc(Nc2ccc(S(=O)(=O)[O-])cc2-c2nc3ccccc3s2)n1.[Na+].[Na+].[Na+]` [Compound X, Trisodium salt of 4-[4,6-bis(carboxymethylamino)-1,3,5-triazin-2-ylamino]-3-(benzo[d]thiazol-2-yl)benzenesulfonic acid], the solubility in water result in data set [1] is “highly soluble in water”. In data set [2], this molecule had a fluorescence wavelength maximum of 565 nm.
In the same order, the values of `O=S(=O)([O-])c1cccc(Nc2nc(Cl)nc(Nc3ccc(S(=O)(=O)[O-])cc3-c3nc4ccccc4o3)n2)c1.[Na+].[Na+]` [Compound XIII, Disodium salt of 4-[4-chloro-6-(3-sulfophenylamino)-1,3,5-triazin-2-ylamino]-3-(benzo[d]oxazol-2-yl)benzenesulfonic acid] are “highly soluble in water” and 517 nm.
For `N.N.N.O=C(O)CN(CC(=O)O)c1nc(Cl)nc(Nc2ccc(S(=O)(=O)O)cc2-c2nc3ccccc3o2)n1` [Compound XIV, Triammonium salt of 4-{4-chloro-6-[di(carboxymethyl)amino]-1,3,5-triazin-2-ylamino}-3-(benzo[d]oxazol-2-yl)benzenesulfonic acid], in data set [1], the solubility in water entry was “highly soluble in water”. In data set [2], this molecule yielded a fluorescence wavelength maximum of 517 mm.

These data come from patent publication US8017769B2, “Colorless water-soluble organic luminophores and intermediates thereof” (priority 2005, dated 2011).
